Measured values from US11560372B2, “Heterocyclic compounds useful as modulators of acetylcholine receptors” (TAKEDA PHARMACEUTICAL COMPANY LIMITED, priority 2017, dated 2023).

Tests used:
[1] = target: T1, MDR1 (Homo sapiens, UniProt P08183); assay: MDR1 membrane permeability test; type: in vitro ADME; settings: pH 7.4, efflux ratio (ER), Papp B to A / A to B, human MDR1-expressing LLC-PK1 cells, read-out: MDR1 substrate screening 1 μM (MDRSUB1)/Ratio (NUMBER)
T1 construct: expressed in transfected cells
T1 sequence (P08183 whole entry): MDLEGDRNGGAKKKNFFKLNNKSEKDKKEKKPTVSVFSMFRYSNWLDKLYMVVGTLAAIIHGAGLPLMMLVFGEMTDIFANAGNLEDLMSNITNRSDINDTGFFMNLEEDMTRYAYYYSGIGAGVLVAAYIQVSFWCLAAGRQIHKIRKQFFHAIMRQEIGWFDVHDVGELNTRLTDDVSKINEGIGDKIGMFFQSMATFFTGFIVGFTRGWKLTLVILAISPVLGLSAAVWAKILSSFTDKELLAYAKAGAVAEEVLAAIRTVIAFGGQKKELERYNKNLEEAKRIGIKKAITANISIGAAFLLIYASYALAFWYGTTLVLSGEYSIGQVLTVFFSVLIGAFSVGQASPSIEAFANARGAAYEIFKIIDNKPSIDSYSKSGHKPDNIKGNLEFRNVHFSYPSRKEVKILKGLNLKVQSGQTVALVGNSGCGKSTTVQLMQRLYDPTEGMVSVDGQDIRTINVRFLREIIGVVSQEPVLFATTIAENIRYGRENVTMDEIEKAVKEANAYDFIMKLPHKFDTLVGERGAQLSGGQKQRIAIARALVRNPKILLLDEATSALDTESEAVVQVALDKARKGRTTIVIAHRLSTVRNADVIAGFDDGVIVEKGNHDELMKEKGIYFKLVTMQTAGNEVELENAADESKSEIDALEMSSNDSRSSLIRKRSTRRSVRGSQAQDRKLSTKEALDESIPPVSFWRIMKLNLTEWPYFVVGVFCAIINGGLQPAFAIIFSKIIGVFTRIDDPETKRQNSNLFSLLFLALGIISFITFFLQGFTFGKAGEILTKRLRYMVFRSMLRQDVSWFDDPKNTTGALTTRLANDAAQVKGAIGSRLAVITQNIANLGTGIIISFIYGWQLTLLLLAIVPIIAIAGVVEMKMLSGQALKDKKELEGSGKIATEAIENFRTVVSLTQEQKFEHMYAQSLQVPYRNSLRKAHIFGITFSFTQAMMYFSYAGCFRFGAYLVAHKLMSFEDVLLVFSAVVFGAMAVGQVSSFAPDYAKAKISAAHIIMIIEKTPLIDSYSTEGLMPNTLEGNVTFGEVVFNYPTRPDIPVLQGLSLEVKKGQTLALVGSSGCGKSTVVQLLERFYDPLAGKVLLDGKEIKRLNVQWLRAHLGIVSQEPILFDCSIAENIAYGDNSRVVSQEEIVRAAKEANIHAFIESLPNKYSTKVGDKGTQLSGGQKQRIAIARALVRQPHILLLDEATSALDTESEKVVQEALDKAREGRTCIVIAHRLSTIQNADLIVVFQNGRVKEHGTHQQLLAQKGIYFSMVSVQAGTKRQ
Method in brief: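 Human MDR1-expressing LLC-PK1 cells were grown for 3 days on 96-well polyethylene terephthalate Transwell supports (0.4 μm pores, 0.143 cm^2) seeded at 3.45×10^4 cells/well. After a 30 min preincubation in M199 medium with 10 mmol/L HEPES and 1% BSA (pH 7.4), drug was added apically or basolaterally. After 1 hr at 37° C, the opposite side was sampled and analyzed by LC-MS/MS. Efflux ratio was calculated from Papp B to A versus A to B.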

[2] = target: T2, human M1 receptor (hCHRM1) (Homo sapiens, UniProt P11229); assay: Measurement of M1 receptor positive allosteric modulator (M1PAM) activity, calcium fluorescence in CHO-K1 cells; type: cell-based; settings: for activity (%) at 10 μM: 10 μM test compound, 100% = acetylcholine final concentration 1 μM, 0% = DMSO; for EC50: inflection point of concentration-dependent curve, in the presence of acetylcholine at EC20 concentration (final 0.8-1.0 nM), read-out: IP value
T2 construct: expressed in transfected cells
T2 sequence (P11229 1-460): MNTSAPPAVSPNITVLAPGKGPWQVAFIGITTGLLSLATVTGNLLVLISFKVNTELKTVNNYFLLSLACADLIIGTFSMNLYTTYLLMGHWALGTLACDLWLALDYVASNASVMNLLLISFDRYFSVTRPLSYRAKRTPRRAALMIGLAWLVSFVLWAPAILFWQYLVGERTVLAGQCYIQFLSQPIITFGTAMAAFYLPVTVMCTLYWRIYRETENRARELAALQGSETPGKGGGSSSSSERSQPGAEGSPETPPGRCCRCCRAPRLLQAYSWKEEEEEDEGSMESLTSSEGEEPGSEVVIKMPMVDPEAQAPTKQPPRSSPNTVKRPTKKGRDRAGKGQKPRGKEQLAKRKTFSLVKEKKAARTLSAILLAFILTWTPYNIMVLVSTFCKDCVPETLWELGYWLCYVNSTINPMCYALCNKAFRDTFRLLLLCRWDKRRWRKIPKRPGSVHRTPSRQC
Method: Measurement of M1 Receptor Positive Allosteric Modulator (M1PAM) Activity
The activity of a test compound in the presence of acetylcholine at EC20 concentration (final concentration 0.8-1.0 nM), which affords an action corresponding to about 20% of the maximum activity, was measured as PAM activity. The method is as follows. CHO-K1 cells stably expressing a human M1 receptor (hCHRM1) were plated on a 384-well black clear bottom plate (BD Falcon) at 5,000 cells/well, and cultured in an incubator at 37° C., 5% CO2 for 1 day. The medium in the cell plate was removed, and assay buffer A containing calcium indicator (Recording medium (DOJINDO LABORATORIES), 0.1% BSA (Wako Pure Chemical Industries, Ltd.), 2.5 μg/mL Fluo-4 AM (DOJINDO LABORATORIES), 0.08% Pluronic F127 (DOJINDO LABORATORIES), 1.25 mM probenecid (DOJINDO LABORATORIES)) was added at 30 μL/well. The cells were left standing in the incubator at 37° C., 5% CO2 for 30 min, and further left standing at room temperature for 30 min. A test compound prepared by diluting with assay buffer B (HBSS (Invitrogen), 20 mM HEPES (Invitrogen), 0.1% BSA) containing 3.2-4.0 nM acetylcholine was added at 10 μL/well, and the fluorescence was measured by FDSS/pCELL (Hamamatsu Photonics K.K.) for 1 min every for 1 second. With the definition that the amount of change in the fluorescence on addition of acetylcholine (final concentration 1 μM) is 100% and that on addition of DMSO instead of a test compound is 0%, the activity (%) of the test compound was calculated, and the inflection point in the concentration-dependent curve of the test compound was calculated as IP values.

| efflux ratio at 1 hr, 1 μM [1] | activity (%) at 10 μM [2] [%] | EC50 [2] [nM] | Structure (SMILES) |
| --- | --- | --- | --- |
| 11 | 106 | 1.9 | Cc1c(Cc2ccc(C(=O)NCCS(C)(=O)=O)c(F)c2)cc2c(=O)n([C@H]3CCOC[C@@H]3O)cnc2c1C [Example 84, 1,5-anhydro-2,3-dideoxy-3-(6-(3-fluoro-4-((2-(methylsulfonyl)ethyl)-carbamoyl)benzyl)-7,8-dimethyl-4-oxoquinazolin-3 (4H)-yl)-L-threo-pentitol] |
| 20 | 111 | 1.8 | Cc1c(Cc2ccc(C(=O)NC3CCOC3)cc2)cc2c(=O)n([C@H]3CCOC[C@@H]3O)cnc2c1C (stereo partly drawn) [Example 33, 1,5-anhydro-2,3-dideoxy-3-(7,8-dimethyl-4-oxo-6-(4-(tetrahydrofuran-3-ylcarbamoyl)benzyl)quinazolin-3 (4H)-yl)-L-threo-pentitol] |
| 20 | 101 | 1.1 | COCCNC(=O)c1ccc(Cc2cc3c(=O)n([C@H]4CCOC[C@@H]4O)cnc3c(C)c2C)cc1 [Example 49, 1,5-anhydro-2,3-dideoxy-3-(6-(4-((2-methoxyethyl)carbamoyl)benzyl)-7,8-dimethyl-4-oxoquinazolin-3 (4H)-yl)-L-threo-pentitol] |
| 15 | 109 | 3 | Cc1c(Cc2ccc(C(=O)NC3(C)COC3)c(F)c2)cc2c(=O)n([C@H]3CCOC[C@@H]3O)cnc2c1C [Example 65, 1,5-anhydro-2,3-dideoxy-3-(6-(3-fluoro-4-((3-methyloxetan-3-yl)carbamoyl)benzyl)-7,8-dimethyl-4-oxoquinazolin-3 (4H)-yl)-L-threo-pentitol] |
